Measurements as given in ChEMBL document CHEMBL5365456, “Isolation and biological activity of natural chalcones based on antibacterial mechanism classification” (Bioorg Med Chem, 2023).
pIC50: −log10 of the molar value. In brackets after ≈: the same amount, converted by molar mass.

What was measured:
[1] = Inhibition of Escherichia coli HUT 215 membrane NADH oxidase by absorbance based assay; format: cell membranes
[2] = Inhibition of Micrococcus luteus IFO 3333 membrane NADH-cytochrome c reductase by absorbance based assay; format: cell membranes
[3] = Inhibition of Staphylococcus aureus IFO 3007 membrane NADH oxidase by absorbance based assay; format: cell membranes
Staphylococcus aureus [4] = assay: Antibacterial activity against Staphylococcus aureus IFO 3007 assessed bacterial growth inhibition by two-fold serial broth dilution method; format: functional
Pseudomonas aeruginosa = assay: Antibacterial activity against Pseudomonas aeruginosa JCM 2776 assessed bacterial growth inhibition by two-fold serial broth dilution method; format: functional
[5] = Inhibition of Pseudomonas aeruginosa JCM 2776 membrane NADH oxidase by absorbance based assay; format: cell membranes
Escherichia coli [6] = assay: Antibacterial activity against Escherichia coli HUT 215 assessed bacterial growth inhibition by two-fold serial broth dilution method; format: functional
Micrococcus luteus = assay: Antibacterial activity against Micrococcus luteus IFO 3333 assessed bacterial growth inhibition by two-fold serial broth dilution method; format: functional
Bacillus subtilis = assay: Antibacterial activity against Bacillus subtilis IFO 3060 assessed bacterial growth inhibition by two-fold serial broth dilution method; format: functional
[7] = Inhibition of Micrococcus luteus IFO 3333 membrane NADH oxidase by absorbance based assay; format: cell membranes
Staphylococcus aureus [8] = assay: Antibacterial activity against Staphylococcus aureus MSSA1 assessed bacterial growth inhibition by CLSI-based broth microdilution method; format: functional
Staphylococcus aureus [9] = assay: Antibacterial activity against Staphylococcus aureus ATCC 10832 assessed as bacterial growth inhibition incubated for 24 hrs by CLSI-based broth microdilution assay; format: functional
[10] = Haemolytic activity in rabbit Erythrocyte infected with Staphylococcus aureus ATCC 29213 assessed as inhibition of alpha-toxin production at 0.125 ug/ml incubated for 20 mins; format: toxicity, cell-based, Oryctolagus cuniculus; details: at 0.125 µg/mL
Staphylococcus aureus [11] = assay: Antibacterial activity against Staphylococcus aureus ATCC 29213 assessed as bacterial growth inhibition incubated for 24 hrs by CLSI-based broth microdilution assay; format: functional
[12] = Haemolytic activity in rabbit Erythrocyte infected with Staphylococcus aureus ATCC 10832 assessed as inhibition of alpha-toxin production at 0.125 ug/ml incubated for 20 mins; format: toxicity, cell-based, Oryctolagus cuniculus; details: at 0.125 µg/mL
[13] = Inhibition of His-tagged Escherichia coli ANS1 FabG using acetoacetyl-CoA as substrate by spectrometric analysis
[14] = Inhibition of His-tagged Escherichia coli ANS1 Fab1 using trans-2-octanoyl-N-acetylcysteamine as substrate by spectrometric analysis
[15] = Inhibition of FAS2 in Mycobacterium smegmatis mc2 155 transfected with pVV16 vector expressing Rv0636 by BCA assay; design: species or system Mycolicibacterium smegmatis
Escherichia coli [16] = assay: Antibacterial activity against Escherichia coli ANS1 assessed as bacterial growth inhibition incubated for 20 hrs by broth microdilution method; format: functional
[17] = Inhibition of FAS2 in Mycobacterium smegmatis mc2 155 transfected with pVV16 vector by BCA assay; design: species or system Mycolicibacterium smegmatis
Candida albicans [18] = assay: Inhibition of Candida albicans ATCC 28366 hyphal transition at 100 ug/ml incubated upto 4 hrs relative to control; format: functional
Candida albicans [19] = assay: Antibiofilm activity against Candida albicans ATCC 28366 at 0.2 ug/ml incubated for 24 hrs by crystal violet staining based assay relative to control; format: functional
[20] = Haemolytic activity in rabbit Erythrocyte infected with methicillin-Resistant Staphylococcus aureus 2985 assessed as inhibition of alpha-toxin production at 2 ug/ml incubated for 15 mins; format: toxicity, cell-based, Oryctolagus cuniculus; details: 0.25 h, at 2 µg/mL
Enterococcus faecalis [21] = assay: Antibiofilm activity against Enterococcus faecalis 16C51 at 4.23 ug/ml incubated for 24 hrs by crystal violet staining based assay relative to control; format: functional
Staphylococcus aureus [22] = assay: Antibiofilm activity against Staphylococcus aureus ATCC 29213 at 16 ug/ml relative to control; format: functional
Candida albicans [23] = assay: Inhibition of Candida albicans LAM-1 hyphal transition at 100 ug/ml incubated upto 4 hrs relative to control; format: functional
Candida albicans [24] = assay: Antifungal activity against Candida albicans ATCC 28366 assessed as fungal growth inhibition incubated for 24 hrs; format: functional
Staphylococcus aureus [25] = assay: Antibacterial activity against methicillin-Resistant Staphylococcus aureus 2985 assessed as bacterial growth inhibition by CLSI-based broth microdilution method; format: functional
[26] = Hemolytic activity in human RBC infected with Streptococcus suis 05ZYH33 at 1.5 ug/ml measured after 1 hr by microplate reader method; format: toxicity, cell-based; details: erythrocyte, at 1.5 µg/mL
Candida albicans [27] = assay: Antifungal activity against Candida albicans LAM-1 assessed as fungal growth inhibition incubated for 24 hrs; format: functional
Candida albicans [28] = assay: Antibiofilm activity against Candida albicans ATCC 28366 at 2 ug/ml incubated for 24 hrs by crystal violet staining based assay relative to control; format: functional
Staphylococcus aureus [29] = assay: Antibacterial activity against Staphylococcus aureus ATCC 29213 assessed bacterial growth inhibition by CLSI-based broth microdilution method; format: functional
Streptococcus suis [30] = assay: Antibacterial activity against Streptococcus suis 05ZYH33 assessed as bacterial growth inhibition incubated for 24 hrs; format: functional
Enterococcus faecalis [31] = assay: Antibiofilm activity against Enterococcus faecalis 16C51 at 2.115 ug/ml incubated for 24 hrs by crystal violet staining based assay relative to control; format: functional
Staphylococcus aureus [32] = assay: Antibacterial activity against methicillin-Sensitive Staphylococcus aureus ATCC 29213 assessed as bacterial growth inhibition by CLSI-based broth microdilution method; format: functional
Staphylococcus aureus [33] = assay: Antibacterial activity against Staphylococcus aureus ATCC 29213 assessed as bacterial growth inhibition incubated for 24 hrs by CLSI-based assay; format: functional
Enterococcus faecalis [34] = assay: Antibacterial activity against Enterococcus faecalis 16C51 assessed as bacterial growth inhibition by CLSI based broth microdilution assay; format: functional
Enterococcus faecalis [35] = assay: Antibiofilm activity against Enterococcus faecalis 16C106 at 2.115 ug/ml incubated for 24 hrs by crystal violet staining based assay relative to control; format: functional
Enterococcus faecalis [36] = assay: Antibiofilm activity against Enterococcus faecalis 16C106 at 4.23 ug/ml incubated for 24 hrs by crystal violet staining based assay relative to control; format: functional
Streptococcus suis [37] = assay: Antibiofilm activity against Streptococcus suis 05ZYH33 assessed as inhibition of biofilm formation at 3 ug/ml incubated for 18 to 24 hrs by crystal violet staining based assay relative to control; format: functional; details: time 18-24 hrs
Streptococcus suis [38] = assay: Antibiofilm activity against Streptococcus suis 05ZYH33 assessed as inhibition of biofilm formation at 4 ug/ml incubated for 18 to 24 hrs by crystal violet staining based assay relative to control; format: functional; details: time 18-24 hrs
[39] = Haemolytic activity in rabbit Erythrocyte infected with Staphylococcus aureus ATCC 29213 assessed as inhibition of alpha-toxin production at 2 ug/ml incubated for 15 mins; format: toxicity, cell-based, Oryctolagus cuniculus; details: 0.25 h, at 2 µg/mL
Enterococcus faecalis [40] = assay: Antibacterial activity against Enterococcus faecalis 16C106 assessed as bacterial growth inhibition by CLSI based broth microdilution assay; format: functional
Rhizomucor pusillus = assay: Antibacterial activity against Rhizomucor pusillus HUT 1185 assessed bacterial growth inhibition by two-fold serial broth dilution method; format: functional
Candida albicans [41] = assay: Antibiofilm activity against Candida albicans LAM-1 at 0.2 ug/ml incubated for 24 hrs by crystal violet staining based assay; format: functional
[42] = Hemolytic activity in human RBC infected with Streptococcus suis 05ZYH33 at 2 ug/ml measured after 1 hr by microplate reader method; format: toxicity, cell-based; details: erythrocyte, at 2 µg/mL
Staphylococcus aureus [43] = assay: Antibiofilm activity against Staphylococcus aureus ATCC 29213 at 128 ug/ml relative to control; format: functional
Candida albicans [44] = assay: Antibiofilm activity against Candida albicans LAM-1 at 2 ug/ml incubated for 24 hrs by crystal violet staining based assay relative to control; format: functional

COc1c(/C=C/C(=O)c2ccc(O)cc2)ccc(O)c1CC=C(C)C
pIC50 [1]: 5.13
pIC50 [2]: 4.53
pIC50 [3]: 4.63
MIC (Staphylococcus aureus [4]): 6.25 µg/mL (≈ 18.5 µM)
MIC (Pseudomonas aeruginosa): > 100 µg/mL
pIC50 [5]: 4.86
MIC (Escherichia coli [6]): > 100 µg/mL
MIC (Micrococcus luteus): 6.25 µg/mL (≈ 18.5 µM)
MIC (Bacillus subtilis): 12.5 µg/mL (≈ 36.9 µM)
pIC50 [7]: 5.52

COc1c(/C=C/C(=O)c2ccc(O)cc2)ccc(O)c1O
MIC (Staphylococcus aureus [4]): 100 µg/mL (≈ 349 µM)
MIC (Micrococcus luteus): 50 µg/mL (≈ 175 µM)
MIC (Bacillus subtilis): 10 µg/mL (≈ 34.9 µM)

CC1(C)C=Cc2c(ccc(C(=O)/C=C/c3ccc(O)cc3)c2O)O1
MIC (Staphylococcus aureus [8]): 4 µg/mL (≈ 12.4 µM)

C=C(C)[C@@H](C)c1cc(/C=C/C(=O)c2ccc(O)cc2)c(OC)cc1O
MIC (Staphylococcus aureus [9]): 2 µg/mL (≈ 5.91 µM)
inhibition (INH) [10]: 33%
MIC (Staphylococcus aureus [11]): 2 µg/mL (≈ 5.91 µM)
inhibition (INH) [12]: 58%

O=C(/C=C/c1ccc(O)c(O)c1)c1ccc(O)cc1O [BUTEIN]
pIC50 [13]: 5.00
pIC50 [14]: 4.52
IC50 [15]: 30 µg/mL (≈ 110 µM)
MIC (Escherichia coli [16]): 32 µM (≈ 8.71 µg/mL)
IC50 [17]: 22 µg/mL (≈ 80.8 µM)

C=CC(C)(C)c1cc(/C=C/C(=O)c2ccc(O)cc2)c(OC)cc1O [LICOAGROCHACONE A]
pIC50 [1]: 5.02
inhibition at 100 µg/mL (Candida albicans [18]): 100%
inhibition at 0.2 µg/mL (Candida albicans [19]): 59%
inhibition (INH) [20]: 93%
pIC50 [2]: 4.83
inhibition at 4.23 µg/mL (Enterococcus faecalis [21]): 80%
inhibition at 16 µg/mL (Staphylococcus aureus [22]): 60%
inhibition at 100 µg/mL (Candida albicans [23]): 79%
MIC (Candida albicans [24]): 6.25 µg/mL (≈ 18.5 µM)
pIC50 [3]: 5.10
MIC (Staphylococcus aureus [25]): 4 µg/mL (≈ 11.8 µM)
inhibition (INH) [26]: 63%
MIC (Candida albicans [27]): 12.5 µg/mL (≈ 36.9 µM)
inhibition at 2 µg/mL (Candida albicans [28]): 81%
MIC (Staphylococcus aureus [29]): 4 µg/mL (≈ 11.8 µM)
MIC (Staphylococcus aureus [4]): 1.56 µg/mL (≈ 4.61 µM)
MIC (Streptococcus suis [30]): 4 µg/mL (≈ 11.8 µM)
inhibition at 2.115 µg/mL (Enterococcus faecalis [31]): 50%
MIC (Pseudomonas aeruginosa): > 100 µg/mL
MIC (Staphylococcus aureus [32]): 4 µg/mL (≈ 11.8 µM)
MIC (Staphylococcus aureus [33]): 2 µg/mL (≈ 5.91 µM)
pIC50 [5]: 4.72
MIC (Enterococcus faecalis [34]): 8.46 µg/mL (≈ 25 µM)
MIC (Escherichia coli [6]): > 100 µg/mL
inhibition at 2.115 µg/mL (Enterococcus faecalis [35]): 50%
MIC (Micrococcus luteus): 1.56 µg/mL (≈ 4.61 µM)
inhibition at 4.23 µg/mL (Enterococcus faecalis [36]): 85%
inhibition at 3 µg/mL (Streptococcus suis [37]): 30%
inhibition at 4 µg/mL (Streptococcus suis [38]): 60%
MIC (Bacillus subtilis): 3.13 µg/mL (≈ 9.25 µM)
inhibition (INH) [39]: 95%
MIC (Enterococcus faecalis [40]): 8.46 µg/mL (≈ 25 µM)
MIC (Rhizomucor pusillus): 12.5 µg/mL (≈ 36.9 µM)
inhibition at 0.2 µg/mL (Candida albicans [41]): 35%
inhibition (INH) [42]: 81%
inhibition at 128 µg/mL (Staphylococcus aureus [43]): 60%
inhibition at 2 µg/mL (Candida albicans [44]): 76%
pIC50 [7]: 5.21

COc1c(/C=C/C(=O)c2ccc(O)c(CC=C(C)C)c2)ccc(O)c1O [LICOCHALCONE D]
MIC (Staphylococcus aureus [4]): 50 µg/mL (≈ 141 µM)
MIC (Micrococcus luteus): 50 µg/mL (≈ 141 µM)
MIC (Bacillus subtilis): 50 µg/mL (≈ 141 µM)
